Measured values from article PMC5972072 (Bioorganic chemistry, 2018).
Entries after “also recorded” stand apart in the source; their conditions may differ.

Legend:
HCT116 and HeLa cells = HCT116 and HeLa cells ref 13; cited from earlier work
haspin kinase [1] = target: T1, haspin kinase (Homo sapiens, UniProt Q8TF76); assay: Haspin kinase activity, ADP-Glo kinase assay, single concentration; type: biochemical; details: for haspin inhibition (in words): 100 nM compound, 3 h, Figure 2; for inhibition at 0.1 µM: read-out: inhibition of haspin's enzymatic activity
T1 sequence (Q8TF76 1-798): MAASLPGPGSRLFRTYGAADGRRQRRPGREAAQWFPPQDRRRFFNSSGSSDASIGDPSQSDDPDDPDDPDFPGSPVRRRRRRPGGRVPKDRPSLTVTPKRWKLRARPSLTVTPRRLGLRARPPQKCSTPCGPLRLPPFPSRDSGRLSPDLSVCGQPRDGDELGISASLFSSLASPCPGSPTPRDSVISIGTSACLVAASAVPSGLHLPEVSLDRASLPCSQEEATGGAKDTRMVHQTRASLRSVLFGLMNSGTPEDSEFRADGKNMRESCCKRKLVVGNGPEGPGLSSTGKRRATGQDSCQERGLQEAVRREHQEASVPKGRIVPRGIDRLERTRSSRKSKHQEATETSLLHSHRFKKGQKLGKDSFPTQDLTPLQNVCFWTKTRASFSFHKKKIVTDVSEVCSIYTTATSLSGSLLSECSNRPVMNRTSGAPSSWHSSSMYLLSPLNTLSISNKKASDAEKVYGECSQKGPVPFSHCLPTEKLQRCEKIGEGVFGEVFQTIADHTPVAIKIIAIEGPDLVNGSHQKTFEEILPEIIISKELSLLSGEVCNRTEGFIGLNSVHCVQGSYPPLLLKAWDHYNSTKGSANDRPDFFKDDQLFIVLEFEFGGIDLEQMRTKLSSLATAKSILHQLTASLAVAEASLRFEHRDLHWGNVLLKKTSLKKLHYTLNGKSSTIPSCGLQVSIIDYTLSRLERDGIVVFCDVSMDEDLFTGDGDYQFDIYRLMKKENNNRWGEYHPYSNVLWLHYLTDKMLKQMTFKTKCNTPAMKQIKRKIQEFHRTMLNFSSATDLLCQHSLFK

HCT116 cells [2] = assay: Antiproliferative activity, CellTiter-Blue viability; type: cell-based; details: for antiproliferative activity (in words): HCT116, 10 μM, 72 h; for IC50: Homo sapiens, HCT-116, 72 h, read-out: IC50 against HCT116
HeLa cells = assay: as above; type: cell-based; details: 72 h; for antiproliferative activity (in words): 10 μM; for IC50: Homo sapiens, read-out: IC50 against HeLa
A375 cells = assay: as above; type: cell-based; details: A375, 10 μM, 72 h
haspin kinase [3] = target: T1, haspin kinase; assay: Haspin dose-response
HCT116 cells [4] = assay: Cell cycle analysis, propidium iodide staining with flow cytometry; type: cell-based
[5] = test system: caspase 3/7 in HCT116 cells; assay: Caspase 3/7 fluorescence assay; details: HCT116, after 72 hours, normalized to DMSO

SMILES	haspin inhibition (in words) (haspin kinase [1])	antiproliferative activity (in words) (HCT116 cells [2])	antiproliferative activity (in words) (HeLa cells)	antiproliferative activity (in words) (A375 cells)	also measured
CCCNc1ccc2ncc(-c3ccc4[nH]ncc4c3)n2n1 [CHR-6494]					apoptosis (in words) (HCT116 and HeLa cells): apoptosis; cell cycle arrest (in words) (HCT116 and HeLa cells): G2/M cell cycle arrest
N#Cc1n[nH]c2ccc3nc(-c4ccc(O)cc4)c4c(c3c12)CCCC4 [Compound 7, 7-(4-Hydroxyphenyl)-8,9,10,11-tetrahydro-3H-pyrazolo[4,3-a]phenanthridine-1-carbonitrile]	no inhibitory activity; also recorded: did not inhibit haspin; also recorded: poor haspin inhibitors	performed poorly	performed poorly	performed poorly	
Nc1ncc(-c2nc3ccc4[nH]ncc4c3c3c2CCCC3)cn1 [Compound 18, 5-(8,9,10,11-Tetrahydro-3H-pyrazolo[4,3-a]phenanthridin-7-yl)pyrimidin-2-amine]	slightly less active against haspin				
Oc1ccc(-c2nc3c(ccc4cn[nH]c43)c3c2CCCC3)cc1 [Compound 19, 4-(6,7,8,9-Tetrahydro-3H-pyrazolo[4,3-c]phenanthridin-5-yl)phenol]	not as active against haspin than compound 1; also recorded: poor haspin inhibitors	performed poorly	performed poorly	performed poorly	
Oc1ccc(-c2nc3ccc4cn[nH]c4c3c3c2CCCC3)cc1 [Compound 20, 4-(8,9,10,11-Tetrahydro-1H-pyrazolo[3,4-a]phenanthridin-7-yl)phenol]	not as active against haspin than compound 1				
Oc1ccc(-c2nc3ccc4[nH]ncc4c3c3c2CCCC3)c(F)c1F [Compound 21, 2,3-Difluoro-4-(8,9,10,11-tetrahydro-3H-pyrazolo[4,3-a]phenanthridin-7-yl)phenol]	decreased potency				
Oc1ccc(-c2nc3ccc4[nH]ncc4c3c3c2CCCC3)c(F)c1 [HSD972, 3-Fluoro-4-(8,9,10,11-tetrahydro-3H-pyrazolo[4,3-a]phenanthridin-7-yl)phenol]		potent antiproliferative activities	potent antiproliferative activities		inhibition at 0.1 µM (haspin kinase [1]): > 90%; IC50 (HCT116 cells [2]): 2.7 µM; IC50 (HeLa cells): 4.8 µM; cells in G2 phase (HCT116 cells [4]; HCT116, 13.5 μM (5X IC50), 24 h, DMSO 16.2%): 59.3%; effect on cell cycle distribution (in words) (HCT116 cells [4]; HCT116, 5X IC50, 24 h, compared to DMSO): population of cells in the G2/M phase was higher; caspase 3/7 activity (in words) [5]: increased the activity of caspase 3/7

Further lines, with some results ahead:

haspin inhibition (in words) (haspin kinase [1])	SMILES	antiproliferative activity (in words) (HCT116 cells [2])	antiproliferative activity (in words) (HeLa cells)	antiproliferative activity (in words) (A375 cells)	also measured
good haspin inhibitor	Oc1ccc(-c2nc3ccc4[nH]ncc4c3c3c2CCCC3)cc1 [Compound 1, 4-(8,9,10,11-Tetrahydro-3H-pyrazolo[4,3-a]phenanthridin-7-yl)phenol]	did not have good anticancer activities	did not have good anticancer activities	did not have good anticancer activities	
less active against haspin than HSD972	Oc1ccc(-c2nc3ccc4[nH]ncc4c3c3c2CCCC3)cc1F [Compound 8, 2-Fluoro-4-(8,9,10,11-tetrahydro-3H-pyrazolo[4,3-a]phenanthridin-7-yl)phenol]				
decreased potency	Oc1cc(F)c(-c2nc3ccc4[nH]ncc4c3c3c2CCCC3)cc1F [Compound 10, 2,5-Difluoro-4-(8,9,10,11-tetrahydro-3H-pyrazolo[4,3-a]phenanthridin-7-yl)phenol]				
poor haspin inhibitor	Oc1ccc(-c2nc3ccc4[nH]ncc4c3c3c2CCCC3)cn1 [Compound 12, 5-(8,9,10,11-Tetrahydro-3H-pyrazolo[4,3-a]phenanthridin-7-yl)pyridin-2-ol]	moderate antiproliferative activity	moderate antiproliferative activity	moderate antiproliferative activity	
did not affect haspin inhibition	Nc1ccc(-c2nc3ccc4[nH]ncc4c3c3c2CCCC3)cn1 [Compound 17, 5-(8,9,10,11-Tetrahydro-3H-pyrazolo[4,3-a]phenanthridin-7-yl)pyridin-2-amine]				inhibition at 0.1 µM (haspin kinase [1]): > 90%; IC50 (haspin kinase [3]): 0.045 µM
potent inhibitors of haspin	Nc1ccc(-c2nc3ccc4[nH]ncc4c3c3c2CCCC3)cc1 [HSD929, 4-(8,9,10,11-Tetrahydro-3H-pyrazolo[4,3-a]phenanthridin-7-yl)aniline]	potent antiproliferative activities	potent antiproliferative activities		haspin inhibition (in words) (haspin kinase [1]; listed as 16): did not affect haspin inhibition; inhibition at 0.1 µM (haspin kinase [1]): > 90%; IC50 (HCT116 cells [2]): 1.68 µM; IC50 (HeLa cells): 3.6 µM; IC50 (haspin kinase [3]): 0.061 µM
